“And” between values parts separate entries of the source, which are not always exact repeats. Equal values may be shown once. Read-outs that look alike come from different tables or passages of the source.
How the values were obtained:
[1] = system: corresponding immobilised fibrils (fibrillar form of Aβ); experiment: SPR association rate k(on) of Aβ monomers onto immobilised fibrils, relative to Aβ1–40 wt; type: binding; settings: for RA, relative association (k(on) versus Aβ1–40 wt): 150 mM NaCl, 25 °C, 20 μL·min^−1, CM5 chip, fibrils at 3500 RU, end state after 60 s injection, Aβ1–40 wt = 1
Procedure: (§1) Recombinant variants of Aβ1–40, Aβ1–40 H6A, Aβ1–40 H13A, Aβ1–40 H14A and Aβ1–40 H6A, H13A, H14A were obtained from AlexoTech (Umeå, Sweden). All lyophilised peptides were solubilised in 20 mM NaOH and separated by size‐exclusion chromatography (Superdex 10/300, GE Life Science, Uppsala, Sweden) in PBS with 2 mM EDTA, 5 mM NaOH and 150 mM NaCl. The pH of all purified peptide solutions was adjusted using a stock solution of phosphate or acetate buffer to give a final buffer concentration corresponding to 20 mM phosphate (pH 7.4) or acetate (pH 5.5) and 150 mM NaCl.
(§2) The interaction study between the fibrillar form of Aβ and its monomeric form was performed using a BIAcore® 3000 biosensor (GE Healthcare®, Uppsala, Sweden) equipped with a CM5 sensor chip (GE Healthcare®). First, the fibrillar form of Aβ was immobilised at a density of 3500 response units (RUs) on the dextran layer of the chip using standard amino coupling reagents at pH 4.0. All SPR experiments were performed at 25 °C at a flow rate of 20 μL·min^−1 in either a 20 mM phosphate buffer (pH 7.4) or 20 mM acetate buffer (pH 5.5). All experiments were performed in the presence of 150 mM NaCl, which represents a physiological ion‐strength.
Due to the polymeric nature of amyloid fibrils, the covalent immobilisation on the sensor chip, likely only occurs in minor fraction of the accessible amino groups. This treatment is therefore not anticipated to influence the overall incorporation of monomers in a significant manner. However, the influence from using immobilised fibrils or the dextran layer cannot be fully excluded and should therefore be disclosed.
(§3) All sensograms were corrected for nonspecific interactions using a reference surface according to standard procedures 16.
Probing free monomeric Aβ against immobilised fibrils using SPR is a frequently used technique for measuring the intrinsic kinetic properties of Aβ polymerisation 11, 14, 17, 18, 19.
Fibrils from recombinant variants of Aβ1–40, Aβ1–40 H6A, Aβ1–40 H13A, Aβ1–40 H14A and Aβ1–40 H6A, H13A, H14A were prepared by prolonged incubation in either PBS (pH 7.4) or acetate buffer pH 5.5 containing 150 mM NaCl. Fibrils immobilised on a CM5 chip were then probed with their monomeric counterpart at different concentrations of Aβ monomers and analysed by SPR. Samples were injected for exactly 60 s and the maximal value at the end state of each injection (indicated by arrow 1 in Fig. 1A) was plotted as a function of the monomeric concentration, Fig. 2. This generates an association rate at each point of measurement. A guideline is given in the figures to illustrate the linearity.
By comparing the rate between the different Aβ variants, it is possible to determine relative differences in k(on).

[2] = system: corresponding immobilised fibrils (fibrillar form of Aβ); experiment: SPR dissociation rate k(off) of Aβ fibrils, slow phase, relative to Aβ1–40 wt; type: binding; settings: for RD, relative dissociation (k(off) versus Aβ1–40 wt): 150 mM NaCl, 25 °C, after 2 μM monomer injection, slow phase, points before 100 s excluded, one exponential decay, Aβ1–40 wt = 1
Procedure: as §1, §2, §3
Note that the dissociation phase exposes a biphasic curvature. This is highly representative and frequently observed when performing these kinds of experiments. […] All analyses of decay rates within this work are therefore exclusively focused on the slower second phase of dissociation.
In contrast to the association rate, kon, the rate of dissociation, koff, is independent of the concentration of monomers. Subsequent to probing, the immobilised fibrils with free monomers, the rate of dissociation can be seen as a decrease in the signal over time.
Because the latter part of the curve, representing the slower phase of dissociation (indicated by arrow 3 Fig. 1), strongly dominates the interaction strength, we have exclusively focused on this part, and no points before 100 s were included in the curve. The dissociation curve could then be fitted to a one exponential decay.

[3] = system: immobilised Aβ fibrils / fibrillar end; experiment: Fibril stability (KD, RD/RA, potentiation factor) from SPR association and dissociation; type: binding; settings: 25 °C, relative to Aβ1–40 wt
Procedure: as §2, §3
While a simple interaction between, for example, a receptor and ligand can easily be determined through saturation experiments, this cannot be done with polymers since they, per definition, cannot be saturated.
This problem can, however, be circumvented by defining the concentration of free monomers where the fibrils are at steady state, i.e. the concentration of free monomers where neither association nor dissociation can be detected. We have previously shown that the KD for Aβ1–40 wt at neutral pH is around 100 nM and around 1 nM at pH 5.5 11, 13. The KD at neutral pH has also been investigated by Hasegawa and co‐workers 14 with similar results. All figures used here are therefore given as relative values to the KD for Aβ1–40 wt corresponding to 100 nM at neutral pH and 1 nM at pH 5.5.
Multiplying the relative RD/RA with the KD for Aβ 1–40 wt will then give the KD for the histidine derivatives.

[4] = molecular target: immobilised Aβ fibrils / fibrillar end; settings: cited from earlier work
Source text: Table 1 Relative change of association and dissociation rates of Aβ1–40 wt and the His‐Ala Aβ variants, and the potentiation of Aβ fibril formation as a function of lowering the pH. RA, Relative association; RD, Relative dissociation; PnF, Potentiation factor KD(pH7.4)/KD(pH5.5) | column: pH 7.4 / KD (nM); pH 5.5 / KD (nM) || The formation of Aβ fibrils requires an initial nucleation event, and fibril elongation involves the addition of monomers to an existing fibril. […] The KD for Aβ1–40 can be as much as 120 times lower at pH 4.5 than pH 7.4. […] It is therefore of interest to elucidate the stabilising factors associated with fibril stability and the potentiating ... || (+ 3 further places)

Aβ1–40 H6A, H13A, H14A: recombinant Aβ1–40 variant where all three histidines have been exchanged for alanine (DAEFRADSGYEVAAQKLVFFAEDVGSNKGAIIGLMVGGVV; Amyloid-beta protein 40; UniProt P05067 672-711, looked up, variant H6A H13A H14A)
RA, relative association (k(on) versus Aβ1–40 wt) ([1]; pH 5.5, 20 mM acetate): 1.57 | RA, relative association (k(on) versus Aβ1–40 wt) ([1]; pH 7.4, 20 mM phosphate): 0.22 | RD, relative dissociation (k(off) versus Aβ1–40 wt) ([2]; pH 5.5, 20 mM acetate): 8.33 | RD, relative dissociation (k(off) versus Aβ1–40 wt) ([2]; pH 7.4, 20 mM phosphate): 2.70 | RD/RA ([3]; pH 5.5, 150 mM NaCl): 5.31 | RD/RA ([3]; pH 7.4, 150 mM NaCl): 12.27

Aβ1–40 H13A
RA, relative association (k(on) versus Aβ1–40 wt) ([1]; pH 5.5, 20 mM acetate): 1.01 | RA, relative association (k(on) versus Aβ1–40 wt) ([1]; pH 7.4, 20 mM phosphate): 0.31 | RD, relative dissociation (k(off) versus Aβ1–40 wt) ([2]; pH 5.5, 20 mM acetate): 2.13 | RD, relative dissociation (k(off) versus Aβ1–40 wt) ([2]; pH 7.4, 20 mM phosphate): 2.22 | RD/RA ([3]; pH 5.5, 150 mM NaCl): 2.11 | RD/RA ([3]; pH 7.4, 150 mM NaCl): 7.16

Aβ1–40 H14A
RA, relative association (k(on) versus Aβ1–40 wt) ([1]; pH 5.5, 20 mM acetate): 1.01 | RA, relative association (k(on) versus Aβ1–40 wt) ([1]; pH 7.4, 20 mM phosphate): 0.34 | RD, relative dissociation (k(off) versus Aβ1–40 wt) ([2]; pH 5.5, 20 mM acetate): 2.22 | RD, relative dissociation (k(off) versus Aβ1–40 wt) ([2]; pH 7.4, 20 mM phosphate): 2.70 | RD/RA ([3]; pH 7.4, 150 mM NaCl): 7.94

Aβ1–40 wt: wild‐type amyloid β 1–40, recombinant, obtained from AlexoTech (Umeå, Sweden) [reference compound]
Kd ([4]; neutral pH (pH 7.4), reference value for the relative KDs, read-out: KD (critical concentration)): ~100 nM and 100 nM | Kd ([4]; neutral pH, read-out: critical concentration (KD)): ~100 nM | decrease of KD at pH 4.5 versus pH 7.4 (times lower) ([4]; pH 4.5 vs pH 7.4, "as much as"): ≤ 120 times | Kd ([4]; pH 5.5, reference value for the relative KDs, read-out: KD): ~1 nM and 1 nM | RA, relative association (k(on) versus Aβ1–40 wt) ([1]; pH 5.5, 20 mM acetate): 1 | rate of association, in words ([1]; pH 5.5 versus pH 7.4): much faster rate of association | RA, relative association (k(on) versus Aβ1–40 wt) ([1]; pH 7.4, 20 mM phosphate): 1 | RD, relative dissociation (k(off) versus Aβ1–40 wt) ([2]; pH 5.5, 20 mM acetate): 1 | RD, relative dissociation (k(off) versus Aβ1–40 wt) ([2]; pH 7.4, 20 mM phosphate): 1 | stabilisation / dissociation on lowering the pH, in words ([2]; pH 7.4 to 5.5): significantly stabilised by the decrease in pH | RD/RA ([3]; pH 5.5, 150 mM NaCl): 1 | RD/RA ([3]; pH 7.4, 150 mM NaCl): 1

Aβ1–42: one of the two dominant forms of amyloid β
critical concentration (KD), in words ([4]; neutral pH, compared with Aβ1–40): slightly lower

— PMC5434815, “The role of histidines in amyloid β fibril assembly” (Febs Letters, 2017)
